Measurements taken from patent US20230041563A1, “N-(1,3,4-OXADIAZOL-2-YL)ARYLCARBOXAMIDES OR SALTS THEREOF, PREPARATION METHODS, HERBICIDAL COMPOSITIONS AND USES THEREOF” (priority 2018, published 2023).

Assays:
Assay type in all cases: in vivo
[1] = tested on: Abutilon theophrasti; assay: Weeding effect in post-emergence stage (greenhouse pot spray)
Summary of the method: (§1)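 Read-out: fresh-weight growth control rate scored 3 weeks after spraying, mean of three replicates. Plants treated at 2-3 leaf stage by spray tower, doses 500-15 g a.i./ha (500, 250, 125, 60, 15).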

[2] = tested on: Digitaria sanguinalis; assay: as above
Summary of the method: as §1

[3] = tested on: Echinochloa crusgalli; assay: as above
Summary of the method: as §1

[4] = tested on: Setaria viridis; assay: as above; conditions: Table 3, dose 60 g a.i./ha
Summary of the method: as §1

[5] = tested on: Amaranthus retroflexus; assay: as above
Summary of the method: as §1

[6] = tested on: Stellaria media; assay: as above
Summary of the method: as §1

[7] = tested on: Echinochloa crusgali; assay: Transplanted rice safety evaluation and weed control effect evaluation in rice field; conditions: Table 7, dose 125 g a.i./ha, 14 days after treatment
Summary of the method: (§2)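 Paddy-soil pots, seeds sown and flooded (0.5-1 cm, then 3-4 cm water); Sagittaria grown from tubers. WP or SC dilutions dripped on at 0.5-leaf stage (Sagittaria at primary leaf). Visual 0-5 scoring of weeds at 14 days, rice at 21 days.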

[8] = tested on: Monochoria vaginalis; assay: as above; conditions: Table 7, dose 125 g a.i./ha, 14 days after treatment
Summary of the method: as §2

[9] = tested on: Scirpus juncoides; assay: as above; conditions: Table 7, dose 125 g a.i./ha, 14 days after treatment
Summary of the method: as §2

[10] = tested on: weeds; assay: Actual control effects and combined effects of mixtures of active ingredients (i) and (ii), stem-leaf treatment, Gowing method; conditions: 20 days

CCSc1c(C(F)(F)F)ccc(C(=O)Nc2nnc(C)o2)c1F [Compound 1-4]
Abutilion theophrasti (activity level) ([1]; Table 2, dose 125 g a.i./ha): 5 (Level 5: growth control rate is above 85%) | Abutilion theophrasti (activity level) ([1]; Table 2, dose 250 g a.i./ha): 5 (Level 5: growth control rate is above 85%) | Abutilon theophrasti (activity level) ([1]; Table 3, dose 60 g a.i./ha): 5 (Level 5: growth control rate is above 85%) | Digitaria sanguinalis (activity level) ([2]; Table 2, dose 125 g a.i./ha): 5 (Level 5: growth control rate is above 85%) | Digitaria sanguinalis (activity level) ([2]; Table 2, dose 250 g a.i./ha): 5 (Level 5: growth control rate is above 85%) | Digitaria sanguinahs (activity level) ([2]; Table 3, dose 60 g a.i./ha): 5 (Level 5: growth control rate is above 85%) | Echinochloa crusgah (activity level) ([3]; Table 2, dose 125 g a.i./ha): 5 (Level 5: growth control rate is above 85%) | Echinochloa crusgah (activity level) ([3]; Table 2, dose 250 g a.i./ha): 5 (Level 5: growth control rate is above 85%) | Setaria viridis (activity level) [4]: 5 (Level 5: growth control rate is above 85%) | Amaranthus retroflexus (activity level) ([5]; Table 2, dose 125 g a.i./ha): 5 (Level 5: growth control rate is above 85%) | Amaranthus retroflexus (activity level) ([5]; Table 2, dose 250 g a.i./ha): 5 (Level 5: growth control rate is above 85%) | Stellaria media (activity level) ([6]; Table 2, dose 125 g a.i./ha): 5 (Level 5: growth control rate is above 85%) | Stellaria media (activity level) ([6]; Table 2, dose 250 g a.i./ha): 5 (Level 5: growth control rate is above 85%) | Echinochloa crusgali (activity level) [7]: 5 (Level 5: growth control rate is above 85%) | Monochoria vaginalis (activity level) [8]: 5 (Level 5: growth control rate is above 85%) | Scirpus juncoides (activity level) [9]: 5 (Level 5: growth control rate is above 85%) | Control effect of (i) alone at corresponding dose ([10]; Cyperus difformis, (i) 0.3 g a.i./mu): 4.1% | Control effect of (i) alone at corresponding dose ([10]; Cyperus difformis, (i) 1 g a.i./mu): 6.3% | Control effect of (i) alone at corresponding dose ([10]; Cyperus difformis, (i) 1.5 g a.i./mu): 9.2% | Control effect of (i) alone at corresponding dose ([10]; Cyperus difformis, (i) 3 g a.i./mu): 15.2% | Control effect of (i) alone at corresponding dose ([10]; Cyperus difformis, (i) 6 g a.i./mu): 25.6% | Control effect of (i) alone at corresponding dose ([10]; Cyperus difformis, (i) 9 g a.i./mu): 32.1% | Control effect of (i) alone at corresponding dose ([10]; Echinochloa phyllopogon, (i) 0.6 g a.i./mu): 20.5% | Control effect of (i) alone at corresponding dose ([10]; Echinochloa phyllopogon, (i) 0.7 g a.i./mu): 25.1% | Control effect of (i) alone at corresponding dose ([10]; Echinochloa phyllopogon, (i) 0.75 g a.i./mu): 30.3% | Control effect of (i) alone at corresponding dose ([10]; Echinochloa phyllopogon, (i) 1 g a.i./mu): 36.6% | Control effect of (i) alone at corresponding dose ([10]; Echinochloa phyllopogon, (i) 1.5 g a.i./mu): 41.5% | Control effect of (i) alone at corresponding dose ([10]; Echinochloa phyllopogon, (i) 1.6 g a.i./mu): 45.3% | Control effect of (i) alone at corresponding dose ([10]; Echinochloa phyllopogon, (i) 3 g a.i./mu): 60.2% | Control effect of (i) alone at corresponding dose ([10]; Leptochloa chinensis, (i) 3 g a.i./mu): 18.6% | Control effect of (i) alone at corresponding dose ([10]; Leptochloa chinensis, (i) 15 g a.i./mu): 45.6% | Control effect of (i) alone at corresponding dose ([10]; Monochoria vaginalis, (i) 0.8 g a.i./mu): 5.8% | Control effect of (i) alone at corresponding dose ([10]; Monochoria vaginalis, (i) 1 g a.i./mu): 6.2% | Control effect of (i) alone at corresponding dose ([10]; Monochoria vaginalis, (i) 1.8 g a.i./mu): 8.6% | Control effect of (i) alone at corresponding dose ([10]; Monochoria vaginalis, (i) 2.4 g a.i./mu): 10.2% | Control effect of (i) alone at corresponding dose ([10]; Monochoria vaginalis, (i) 3 g a.i./mu): 12.7% | Control effect of (i) alone at corresponding dose ([10]; Monochoria vaginalis, (i) 3.5 g a.i./mu): 13.3% | Control effect of (i) alone at corresponding dose ([10]; Monochoria vaginalis, (i) 5 g a.i./mu): 19.6% | Control effect of (i) alone at corresponding dose ([10]; Monochoria vaginalis, (i) 6 g a.i./mu): 28.6% | Control effect of (i) alone at corresponding dose ([10]; Monochoria vaginalis, (i) 10 g a.i./mu): 31.7% | Control effect of (i) alone at corresponding dose ([10]; Monochoria vaginalis, (i) 15 g a.i./mu): 40.5% | Control effect of (i) alone at corresponding dose ([10]; Sagittaria trifolia L., (i) 0.75 g a.i./mu): 16.3% | Control effect of (i) alone at corresponding dose ([10]; Sagittaria trifolia L., (i) 3 g a.i./mu): 60.3%
